Where “and” joins values, the source holds several entries; their conditions need not be identical. Equal values may be shown once.
How the values were obtained:
SARS-CoV-2 Mpro = SARS-CoV-2 Mpro (Severe acute respiratory syndrome coronavirus 2, UniProt P0DTD1); assay: biochemical; conditions: for IC50: IC50, enzyme 100 nM, substrate 20 μM, 10 min preincubation, pH 6.5; for activity reduction vs. compound 30: compared with more active diastereomer of 30; for inhibition at 20 µM: read-out: % inhibition at 20 μM; for fold less active than compound 13: IC50 compared with compound 13
[1] = test system: SARS-CoV-2 (Washington strain, 2020); assay: microbe, parasite or virus in culture; assay type: cell-based; conditions: for EC68 (half-log reduction of virus titer): 0.01 MOI
[2] = Severe acute respiratory syndrome coronavirus 2, Vero, read-out: inhibition of SARS-CoV-2 replication

Row | Structure (SMILES) | IC50 (SARS-CoV-2 Mpro) | inhibition at 20 µM (SARS-CoV-2 Mpro) | also measured
1 | CC(C)(C)c1ccc(N(C(=O)C2CO2)C(C(=O)NC2CCCCC2)c2cccnc2)cc1 [(R, S)- and (S, R)-30, N-(4-(tert-Butyl)phenyl)-N-(2-(cyclohexylamino)-2-oxo-1-(pyridin-3-yl)ethyl)oxirane-2-carboxamide] | 760 ± 180 nM | – | activity difference between the two separated diastereomers (SARS-CoV-2 Mpro): > 10 fold; EC90 ([1]; Severe acute respiratory syndrome coronavirus 2, Vero, 48 h): 15000 nM; EC68 (half-log reduction of virus titer) ([1]; Vero cells, 48 h): 5 μM
2 | CC1OC1C(=O)N(c1ccc(C(C)(C)C)cc1)C(C(=O)NC1CCCCC1)c1cccnc1 [(R, S, R)- and (S, R, S)-35, N-(4-(tert-Butyl)phenyl)-N-(2-(cyclohexylamino)-2-oxo-1-(pyridin-3-yl)ethyl)-3-methyloxirane-2-carboxamide] | 1900 ± 210 nM | – | activity difference between the two separated diastereomers (SARS-CoV-2 Mpro): > 10 fold; activity reduction vs. compound 30 (SARS-CoV-2 Mpro): ≤ 3 fold; EC68 (half-log reduction of virus titer) ([1]; Vero cells, 48 h): 15 μM
3 | O=C(Nc1ccc(N(C(=O)c2ccco2)C(C(=O)NCc2ccccc2)c2cccnc2)cc1)C(Cl)Cl (stereo not shown) [Compound 6, N-(2-(Benzylamino)-2-oxo-1-(pyridin-3-yl)ethyl)-N-(4-(2,2-dichloroacetamido)phenyl)furan-2-carboxamide] | – | 41% | –
4 | C=CC(=O)Nc1ccc(N(C(=O)c2ccco2)C(C(=O)NCc2ccccc2)c2cccnc2)cc1 (stereo not shown) [Compound 7, N-(4-Acrylamidophenyl)-N-(2-(benzylamino)-2-oxo-1-(pyridin-3-yl)ethyl)furan-2-carboxamide] | – | 22% | –
5 | O=C(CCl)Nc1cccc(N(C(=O)c2ccco2)C(C(=O)NCc2ccccc2)c2cccnc2)c1 (stereo not shown) [Compound 8, N-(2-(Benzylamino)-2-oxo-1-(pyridin-3-yl)ethyl)-N-(3-(2-chloroacetamido)phenyl)furan-2-carboxamide] | ~20000 nM | 47% | –
6 | O=C(Nc1cccc(N(C(=O)c2ccco2)C(C(=O)NCc2ccccc2)c2cccnc2)c1)C(Cl)Cl (stereo not shown) [Compound 9, N-(2-(Benzylamino)-2-oxo-1-(pyridin-3-yl)ethyl)-N-(3-(2,2-dichloroacetamido)phenyl)furan-2-carboxamide] | – | 20% | –
7 | C=CC(=O)Nc1cccc(N(C(=O)c2ccco2)C(C(=O)NCc2ccccc2)c2cccnc2)c1 (stereo not shown) [Compound 10, N-(3-Acrylamidophenyl)-N-(2-(benzylamino)-2-oxo-1-(pyridin-3-yl)ethyl)furan-2-carboxamide] | – | 5% | –
8 | Nc1ccc(N(C(=O)c2ccco2)C(C(=O)NCc2ccccc2)c2cccnc2)cc1 (stereo not shown) [Compound 11, N-(4-Aminophenyl)-N-(2-(benzylamino)-2-oxo-1-(pyridin-3-yl)ethyl)furan-2-carboxamide] | – | 0% | –
9 | Nc1cccc(N(C(=O)c2ccco2)C(C(=O)NCc2ccccc2)c2cccnc2)c1 (stereo not shown) [Compound 12, N-(3-Aminophenyl)-N-(2-(benzylamino)-2-oxo-1-(pyridin-3-yl)ethyl)furan-2-carboxamide] | – | 18% | –
10 | CC(C)(C)NC(=O)C(c1cccnc1)N(C(=O)CCl)c1ccc(C(C)(C)C)cc1 (stereo not shown) [Compound 13, N-(tert-Butyl)-2-(N-(4-(tert-butyl)phenyl)-2-chloroacetamido)-2-(pyridin-3-yl)acetamide] | 600 ± 50 nM | – | inhibition at 3 µM [1, 2]: 68%; inhibition at 5 µM [1, 2]: 97%; EC68 (half-log reduction of virus titer) ([1]; Vero cells, 48 h): 3 μM; titer reduction ([1]; at 3 μM, Vero cells): 0.5 log; titer reduction ([1]; at 5 μM, Vero cells): 1.5 log
11 | CC(C)(C)NC(=O)C(c1cccnc1)N(C(=O)CCl)c1ccc(-c2ccccc2)cc1 (stereo not shown) [Compound 14, N-([1,1’-Biphenyl]-4-yl)-N-(2-(tert-butylamino)-2-oxo-1-(pyridin-3-yl)ethyl)-2-chloroacetamide] | 950 ± 40 nM | – | –
12 | CC(C)(C)NC(=O)C(c1cccnc1)N(C(=O)CCl)c1ccc(NC(=O)CCl)cc1 (stereo not shown) [Compound 15, N-(tert-Butyl)-2-(2-chloro-N-(4-(2-chloroacetamido)phenyl)acetamido)-2-(pyridin-3-yl)acetamide] | 3200 ± 790 nM | – | fold less active than compound 13 (SARS-CoV-2 Mpro): ~ 5 ×
13 | CC(C)(C)NC(=O)C(c1cccnc1)N(C(=O)CCl)c1ccc(NC(=O)C(Cl)Cl)cc1 (stereo not shown) [Compound 16, N-(tert-Butyl)-2-(2-chloro-N-(4-(2,2-dichloroacetamido)phenyl)acetamido)-2-(pyridin-3-yl)acetamide] | 3600 ± 190 nM | – | fold less active than compound 13 (SARS-CoV-2 Mpro): ~ 5 ×
14 | CC(C)(C)NC(=O)C(c1cccnc1)N(C(=O)CCl)c1ccc(CC2CO2)cc1 (stereo not shown) [Compound 17, N-(tert-Butyl)-2-(2-chloro-N-(4-(oxiran-2-ylmethyl)phenyl)acetamido)-2-(pyridin-3-yl)acetamide] | 3600 ± 300 nM | – | –
15 | CC(C)(C)NC(=O)C(c1cccnc1)N(C(=O)CCl)c1cccc(NC(=O)CCl)c1 (stereo not shown) [Compound 18, N-(tert-Butyl)-2-(2-chloro-N-(3-(2-chloroacetamido)phenyl)acetamido)-2-(pyridin-3-yl)acetamide] | 3600 ± 600 nM | – | –
16 | CC(C)(C)NC(=O)C(c1cccnc1)N(C(=O)CCl)c1cccc(NC(=O)C(Cl)Cl)c1 (stereo not shown) [Compound 19, N-(tert-Butyl)-2-(2-chloro-N-(3-(2,2-dichloroacetamido)phenyl)acetamido)-2-(pyridin-3-yl)acetamide] | 2200 ± 510 nM | – | –

Row | Structure (SMILES) | IC50 (SARS-CoV-2 Mpro) | inhibition at 20 µM (SARS-CoV-2 Mpro) | also measured
17 | CC(C)(C)NC(=O)C(c1cccnc1)N(C(=O)CCl)c1ccc(N)cc1 (stereo not shown) [Compound 20, N-(4-Aminophenyl)-N-(2-(tert-butylamino)-2-oxo-1-(pyridin-3-yl)ethyl)-2-chloroacetamide] | – | 12% | –
18 | CC(C)(C)NC(=O)C(c1cccnc1)N(C(=O)CCl)c1cccc(N)c1 (stereo not shown) [Compound 21, N-(3-Aminophenyl)-N-(2-(tert-butylamino)-2-oxo-1-(pyridin-3-yl)ethyl)-2-chloroacetamide] | – | 33% | –
19 | COc1ccc(N(C(=O)CCl)C(C(=O)NC(C)(C)C)c2cccnc2)cc1 (stereo not shown) [Compound 22, N-(tert-Butyl)-2-(2-chloro-N-(4-methoxyphenyl)acetamido)-2-(pyridin-3-yl)acetamide] | 1600 nM and 1610 nM | – | –
20 | CC(C)(C)c1ccc(N(C(=O)CCl)C(C(=O)NCc2ccccc2)c2cccnc2)cc1 (stereo not shown) [Compound 23, N-Benzyl-2-(N-(4-(tert-butyl)phenyl)-2-chloroacetamido)-2-(pyridin-3-yl)acetamide] | – | 41% | –
21 | CCCCNC(=O)C(c1cccnc1)N(C(=O)CCl)c1ccc(C(C)(C)C)cc1 (stereo not shown) [Compound 24, N-Butyl-2-(N-(4-(tert-butyl)phenyl)-2-chloroacetamido)-2-(pyridin-3-yl)acetamide] | 2400 ± 300 nM | – | –
22 | CC(C)(C)c1ccc(N(C(=O)CCl)C(C(=O)NC2CCCCC2)c2cccnc2)cc1 (stereo not shown) [Compound 26, N-(4-(tert-Butyl)phenyl)-2-chloro-N-(2-(cyclohexylamino)-2-oxo-1-(pyridin-3-yl)ethyl)acetamide] | 490 ± 220 nM | – | –
23 | C=CC(=O)N(c1ccc(C(C)(C)C)cc1)C(C(=O)NC1CCCCC1)c1cccnc1 (stereo not shown) [Compound 29, N-(4-(tert-Butyl)phenyl)-N-(2-(cyclohexylamino)-2-oxo-1-(pyridin-3-yl)ethyl)acrylamide] | – | 30% | –
24 | CC(C)(C)NC(=O)C(c1cccnc1)N(C(=O)C(=O)Cc1ccccc1)c1ccc(C(C)(C)C)cc1 (stereo not shown) [Compound 31, N-(4-(tert-Butyl)phenyl)-N-(2-(tert-butylamino)-2-oxo-1-(pyridin-3-yl)ethyl)-2-oxo-3-phenylpropanamide] | – | 0% | inhibitory activity against Mpro (in words) (SARS-CoV-2 Mpro): inactive
25 | CC(C)(C)NC(=O)C(c1cccnc1)N(C(=O)CO)c1ccc(C(C)(C)C)cc1 (stereo not shown) [Compound 32, N-(tert-Butyl)-2-(N-(4-(tert-butyl)phenyl)-2-hydroxyacetamido)-2-(pyridin-3-yl)acetamide] | – | 21% | –
26 | CC(=O)OCC(=O)N(c1ccc(C(C)(C)C)cc1)C(C(=O)NC(C)(C)C)c1cccnc1 (stereo not shown) [Compound 33, 2-((4-(tert-Butyl)phenyl)(2-(tert-butylamino)-2-oxo-1-(pyridin-3-yl)ethyl)amino)-2-oxoethyl acetate] | – | 0% | –
27 | CC(C)(C)c1ccc(N(C(=O)CC#N)C(C(=O)NC2CCCCC2)c2cccnc2)cc1 (stereo not shown) [Compound 34, N-(4-(tert-Butyl)phenyl)-2-cyano-N-(2-(cyclohexylamino)-2-oxo-1-(pyridin-3-yl)ethyl)acetamide] | – | 28% | –
28 | CC(C)(C)c1ccc(N(C(=O)C2OC2(C)C)C(C(=O)NC2CCCCC2)c2cccnc2)cc1 (stereo not shown) [Compound 36, N-(4-(tert-Butyl)phenyl)-N-(2-(cyclohexylamino)-2-oxo-1-(pyridin-3-yl)ethyl)-3,3-dimethyloxirane-2-carboxamide] | 2500 ± 280 nM | – | activity reduction vs. compound 30 (SARS-CoV-2 Mpro): ≤ 3 fold; antiviral activity (in words) ([1]; at 15 μM, Vero cells): inactive
29 | CC1(C(=O)N(c2ccc(C(C)(C)C)cc2)C(C(=O)NC2CCCCC2)c2cccnc2)CO1 (stereo not shown) [Compound 37, N-(4-(tert-Butyl)phenyl)-N-(2-(cyclohexylamino)-2-oxo-1-(pyridin-3-yl)ethyl)-2-methyloxirane-2-carboxamide] | – | 28% | activity reduction vs. compound 30 (SARS-CoV-2 Mpro): > 25 fold
30 | CC(C)(C)NC(=O)C(c1cccnc1)N(C(=O)C1OC1(C)C)c1ccc(C(C)(C)C)cc1 (stereo not shown) [Compound 40, N-(4-(tert-Butyl)phenyl)-N-(2-(tert-butylamino)-2-oxo-1-(pyridin-3-yl)ethyl)-3,3-dimethyloxirane-2-carboxamide] | – | 31% | –
31 | CC(C)(C)NC(=O)C(c1cccnc1)N(C(=O)C1(C)CO1)c1ccc(C(C)(C)C)cc1 (stereo not shown) [Compound 41, N-(4-(tert-Butyl)phenyl)-N-(2-(tert-butylamino)-2-oxo-1-(pyridin-3-yl)ethyl)-2-methyloxirane-2-carboxamide] | – | 22% | –

From article PMC10922772 (ACS infectious diseases, 2024)
